Patent US10245261B2, “Substituted indol-5-ol derivatives and their therapeutic applications” (NantBioScience, Inc., priority 2013, dated 2019)

Key:
[1] = system: human K562 chronic myelogenous leukemia (CML) xenograft; assay: CML xenograft model in female SCID mice; format: in vivo, mouse
Procedure: The objective of the second study was to evaluate antitumor activities of novel multiple-kinase inhibitor NTW-3475 in human K562 chronic myelogenous leukemia (CML) xenograft model in female SCID mice.
Four to six animals were randomly assigned to study groups. Each animal was weighed, and then injected subcutaneously in the left and right flank area with 0.1 ml of 8.0×10^7 K562 cells per mL.
(§1) Each test or control animal was on a 5-day on, two-day off for two cycles treatment schedule. Tumor growth was measured with a digital hand held caliper twice weekly (once tumor emerges) prior to the first dosing and then two to three times weekly until euthanized. Animals were weighed prior to tumor cell injection, prior to dosing, two to three times weekly with tumor growth measurements, and prior to euthanasia.
This example illustrated antitumor activities of Compound 10 and 11 in human K562 chronic myelogenous leukemia (CML) xenograft model in female SCID mice.
On the appropriate days, each animal in an appropriate group will receive a specific amount of test article either at 75 or 100 mg/kg, and the dosing volume is 10 ml/kg by oral gavage as indicated. Dosing schedule will be once daily for 10 days (qd×10, 5 days on and 2 days off for 2 cycles).

[2] = system: NCI 60 cancer cell line panel; assay: NCI-60 DTP Human Tumor Cell Line Panel, SRB growth inhibition; format: cell-based; settings: cell lines from the NCI 60 panel
Procedure: The human tumor cell lines of the cancer screening panel are grown in RPMI 1640 medium containing 5% fetal bovine serum and 2 mM L-glutamine. For a typical screening experiment, cells are inoculated into 96 well microtiter plates in 100 μL at plating densities ranging from 5,000 to 40,000 cells/well depending on the doubling time of individual cell lines. After cell inoculation, the microtiter plates are incubated at 37° C., 5% CO2, 95% air and 100% relative humidity for 24 h prior to addition of experimental drugs.
After 24 h, two plates of each cell line are fixed in situ with TCA, to represent a measurement of the cell population for each cell line at the time of drug addition (Tz). Experimental drugs are solubilized in dimethyl sulfoxide at 400-fold the desired final maximum test concentration and stored frozen prior to use. At the time of drug addition, an aliquot of frozen concentrate is thawed and diluted to twice the desired final maximum test concentration with complete medium containing 50 μg/ml gentamicin. Additional four, 10-fold or ½ log serial dilutions are made to provide a total of five drug concentrations plus control. Aliquots of 100 μl of these different drug dilutions are added to the appropriate microtiter wells already containing 100 μl of medium, resulting in the required final drug concentrations.
Following drug addition, the plates are incubated for an additional 48 h at 37° C., 5% CO2, 95% air, and 100% relative humidity. For adherent cells, the assay is terminated by the addition of cold TCA. Cells are fixed in situ by the gentle addition of 50 μl of cold 50% (w/v) TCA (final concentration, 10% TCA) and incubated for 60 minutes at 4° C. The supernatant is discarded, and the plates are washed five times with tap water and air dried. Sulforhodamine B (SRB) solution (100 μl) at 0.4% (w/v) in 1% acetic acid is added to each well, and plates are incubated for 10 minutes at room temperature. After staining, unbound dye is removed by washing five times with 1% acetic acid and the plates are air dried. Bound stain is subsequently solubilized with 10 mM trizma base, and the absorbance is read on an automated plate reader at a wavelength of 515 nm. For suspension cells, the methodology is the same except that the assay is terminated by fixing settled cells at the bottom of the wells by gently adding 50 μl of 80% TCA (final concentration, 16% TCA). Using the seven absorbance measurements [time zero, (Tz), control growth, (C), and test growth in the presence of drug at the five concentration levels (Ti)], the percentage growth is calculated at each of the drug concentrations levels. Percentage growth inhibition is calculated as: [(Ti−Tz)/(C−Tz)]×100 for concentrations for which Ti>/=Tz [(Ti−Tz)/Tz]×100 for concentrations for which Ti<Tz.
Three dose response parameters are calculated for each experimental agent.

[3] = system: human MV411 human acute myelogenous leukemia (AML) xenograft; assay: AML xenograft model in female SCID mice; format: in vivo, mouse
Procedure: The objective of the first study was to evaluate antitumor activities of the novel multiple-kinase inhibitor NTW-3475 against human MV411 human acute myelogenous leukemia (AML) xenograft model in female SCID mice.
Four or six animals were randomly assigned to each study group. Each animal was injected subcutaneously in the left and right flank area with 0.1 ml of 1.0×10^8 MV411 cells per mL.
as §1, with “animal was placed on a” for “animal was on a”, “two cycles of vehicle negative control or 25, 50 mg/kg of NTW-3475. Tumor growth” for “two cycles treatment schedule. Tumor growth”
The objective of the first study was to evaluate antitumor activities of the novel multiple-kinase inhibitor Compounds 11, 68, and 82 against human MV411 human acute myelogenous leukemia (AML) xenograft model in female SCID mice.
as §1, with “animal was placed on a” for “animal was on a”, “two cycles of vehicle negative control or 25, 50 mg/kg of compound. Tumor growth” for “two cycles treatment schedule. Tumor growth”

[4] = system: AN3 human endometrial carcinoma xenograft; assay: Endometrial carcinoma xenograft; format: in vivo, mouse
[5] = system: TT human Thyroid carcinoma xenograft; assay: Thyroid carcinoma xenograft; format: in vivo, mouse
Procedure: This example assesses Compound 10, 53 and 88's anti-tumor activity using a SCID mouse xenograft models for TT human Thyroid carcinoma xenograft (FIGS. 65 to 69.)
On the appropriate days, each animal in an appropriate group will receive a specific amount of Compound 10 either at 50 or 100 mg/kg, and the dosing volume is 10 ml/kg by oral gavage as indicated. Dosing schedule will be once daily for 30 days.
On the appropriate days, each animal in an appropriate group will receive a specific amount of Compound 53 either at 50 or 100 mg/kg, and the dosing volume is 10 ml/kg by oral gavage as indicated. Dosing schedule will be once daily for 30 days.
Dosing schedule will be once daily for 30 days.

[6] = system: human MIAPaCa-2 pancreatic carcinoma xenograft; assay: Pancreatic carcinoma xenograft in athymic nude mice; format: in vivo, mouse; settings: MIAPaCa-2 xenograft
Procedure: The objective of the third study was to evaluate antitumor activities of novel multiple-kinase inhibitor NTW-3475 in human MIAPaCa-2 pancreatic carcinoma xenograft in athymic nude-Faxn1 mice.
Four animals were randomly assigned to study groups. Each animal was weighed, and then injected subcutaneously in the left and right flank area with 0.1 ml of 5.0×10^7 MIAPaCa-2 cells per mL.
Each test or control animal was on a 5-day on, two-day off for two cycles treatment schedule with negative control vehicle, positive control Abraxane at 20 mg/kg or 25, 50 mg/kg of NTW-3475. Tumor growth was measured with a digital hand held caliper twice weekly (once tumor emerges) prior to the first dosing and then two to three times weekly until euthanized.
The objective of the third study was to evaluate antitumor activities of novel multiple-kinase inhibitor Compound 10, 11, 12, 53, 68, 82, 83, 88, and 90 in human MIAPaCa-2 pancreatic carcinoma xenograft in athymic nude-Faxn1 mice.
Each test or control animal was on a 5-day on, two-day off for three cycles treatment schedule with negative control vehicle or 40 mg/kg of Compound 10, 11, 12, 53, 68, 82, 83, 88 and 90. Tumor growth was measured with a digital hand held caliper twice weekly (once tumor emerges) prior to the first dosing and then two to three times weekly until euthanized.

With Cc1cc2c(F)c(Oc3nc(Nc4cc(C5CC5)[nH]n4)cc(N4CCN(C)CC4)n3)cc(F)c2[nH]1 [NTW-3475] the anti-tumor effect [1] was “strong anti-tumor effect”, the antiproliferative activity [2] was “strong antiproliferative activity” and the anti-tumor effect [3] was “strong anti-tumor effect”. The body weight change [3] was “minimal body weight lost”, the anti-tumor effect [4] was “anti-tumor effect” and the anti-tumor effect [5] was “anti-tumor effect”. The “anti-tumor effect in combination with Abraxane” value ([6]; combination with Abraxane) was “anti-tumor effect” and the anti-tumor effect ([6]; nude mice, single agent) was “strong anti-tumor effect”.
